These results are taken from US20250145561A1, “4-SUBSTITUTED-PHENYL ACETAMIDES AND ARYLUREAS AS AGONISTS FOR THE ORPHAN RECEPTOR GPR88” (RESEARCH TRIANGLE INSTITUTE, priority 2022, published 2025).

The Emax is the greatest response seen or fitted, relative to the assay's reference. By EC50 is commonly meant the concentration needed to bring the measured effect to its halfway point.

For this experiment, the target named is T1, GPR88 (Homo sapiens, UniProt Q9GZN0).
T1 construct: expressed in transfected cells
T1 sequence (Q9GZN0 whole entry): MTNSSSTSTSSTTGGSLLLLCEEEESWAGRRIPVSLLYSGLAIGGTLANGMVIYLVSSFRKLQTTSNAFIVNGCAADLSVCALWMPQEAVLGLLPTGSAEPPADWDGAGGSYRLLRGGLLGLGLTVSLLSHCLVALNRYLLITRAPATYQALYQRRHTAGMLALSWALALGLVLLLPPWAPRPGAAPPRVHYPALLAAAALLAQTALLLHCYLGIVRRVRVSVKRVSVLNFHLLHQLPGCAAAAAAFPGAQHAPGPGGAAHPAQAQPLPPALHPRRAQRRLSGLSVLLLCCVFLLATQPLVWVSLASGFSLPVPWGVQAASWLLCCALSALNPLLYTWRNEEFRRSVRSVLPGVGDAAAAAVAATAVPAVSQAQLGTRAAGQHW
In words: Lance Ultra TR-FRET cAMP assay using stable PPLS-HA-GPR88 CHO cells. The experiment is classed as cell-based. The note with it: for Emax: CHO; for EC50 / cAMP pEC50: stable PPLS-HA-GPR88 CHO cells; for EC50: value in parentheses beside pEC50; for cAMP pEC50: 300 nM forskolin, mean ± standard error of at least three independent experiments in duplicate. As to the method:
The compounds of the present disclosure offer potent agonism to the orphan receptor GPR88. As such, the compounds of the present disclosure provide therapeutic potential for the treatment of striatal associated disorders such as Parkinson's disease, schizophrenia, and alcohol addiction. All compounds were evaluated for the GPR88 agonist activity in the inventors' previously established in vitro GPR88 Lance TR-FRET cAMP assay. See, supra, Jin et al., 2018, Rahman et al., 2020, and Rahman et al., 2021. As will be described, the TR-FRET signal was converted to fmol cAMP by interpolating from the standard cAMP curve. Fmol cAMP was plotted against the log of compound concentration and data were fit to a three-parameter logistic curve to generate maximum response (Emax) and EC50 values.
Lance™ Ultra cAMP assay using stable PPLS-HA-GPR88 CHO cells. All cAMP assays were performed using the inventors' previously published methods. […] ACS Chemical Neuroscience 2016, 7, 1418-1432, which is incorporated by reference herein with regard to such teaching. Stimulation buffer containing 1× Hank's Balanced Salt Solution (HBSS), 5 mM HEPES, 0.1% BSA stabilizer, and 0.5 mM final IBMX was prepared and titrated to pH 7.4 at room temperature. Serial dilutions of the test compounds (5 μL) and 300 nM forskolin (5 μL), both prepared at 4× the desired final concentration in 2% DMSO/stimulation buffer, were added to a 96-well white ½ area microplate (PerkinElmer). A cAMP standard curve was prepared at 4× the desired final concentration in stimulation buffer and 5 μL was added to the assay plate. Stable PPLS-HA-GPR88 CHO cells were lifted with versene and spun at 270 g for 10 minutes. The cell pellet was resuspended in stimulation buffer and 4,000 cells (10 μL) were added to each well except wells containing the cAMP standard curve. After incubating for 30 min at room temperature, Eu-cAMP tracer and uLIGHT-anti-cAMPworking solutions were added per the manufacturer's instructions. After incubation at room temperature for 1 hour, the TR-FRET signal (ex 337 nm) was read on a CLARIOstar multimode plate reader (BMG Biotech, Cary, NC).
Data Analysis. The TR-FRET signal (665 nm) was converted to fmol cAMP by interpolating from the standard cAMP curve. Fmol cAMP was plotted against the log of compound concentration and data were fit to a three-parameter logistic curve to generate EC50 values (Prism, version 6.0, GraphPad Software, Inc., San Diego, CA).

Regarding `CCCc1ccc(-c2ccc(C(C(=O)N[C@H](C)c3ccccc3)C(=O)OC)cc2)cc1` (mixture of isomers) [Compound 28, Methyl 2-{[(1 R)-1-Phenylethyl]carbamoyl}-2-{4′-propyl-[1,1′-biphenyl]-4-yl}acetate], the Emax came to 99 ± 6% and the EC50 is 1290 nM.

For the compound `CCCc1ccc(-c2ccc(C(C(=O)NC)C(=O)N[C@H](C)c3ccccc3)cc2)cc1` (mixture of isomers) [Compound 29, N-Methyl-N′-[(1 R)-1-phenylethyl]-2-{4′-propyl-[1,1′-biphenyl]-4-yl}propanediamide], the Emax amounted to 105 ± 2% and the EC50 is 1380 nM.

Take `CCCC(C)COc1ccc([C@H](CO)C(=O)N[C@H](C)c2ccccc2)cc1` (stereo partly drawn) [Compound 3, (2R)-3-Hydroxy-2-{4-[(2-methylpentyl)oxy]phenyl}-N-[(1 R)-1-phenylethyl]propanamide]: the maximal effect (Emax) was 77 ± 4%.

As for `CCCC(C)COc1ccc([C@@H](CO)C(=O)N[C@H](C)c2ccccc2)cc1` (stereo partly drawn) [Compound 4, (2S)-3-Hydroxy-2-{4-[(2-methylpentyl)oxy]phenyl}-N-[(1 R)-1-phenylethyl]propenamide], the Emax came to 94 ± 13% and the EC50 is 200 nM.

Turning to `CCCC(C)COc1ccc([C@@H](CO)C(=O)N[C@@H](C)c2ccccc2)cc1` (stereo partly drawn) [Compound 5, (2S)-3-Hydroxy-2-{4-[(2-methylpentyl)oxy]phenyl}-N-[(1S)-1-phenylethyl]propenamide], the “cAMP pEC50” value is given as “Inactive”.

As to `CCCC(C)COc1ccc([C@H](CO)C(=O)N[C@@H](C)c2ccccc2)cc1` (stereo partly drawn) [Compound 6, (2R)-3-Hydroxy-2-{4-[(2-methylpentyl)oxy]phenyl}-N-[(1 S)-1-phenylethyl]propenamide], the “cAMP pEC50” value is recorded as “Inactive”.

For `CC[C@H](C)COc1ccc([C@@H](CO)C(=O)N[C@H](C)c2ccccc2)cc1` [Compound 7, (2S)-3-Hydroxy-2-{4-[(2S)-2-methylbutoxy]phenyl}-N-[(1 R)-1-phenylethyl]propenamide], the Emax was 88 ± 7% and the EC50 is 2000 nM.

Turning to `CC[C@@H](C)COc1ccc([C@@H](CO)C(=O)N[C@H](C)c2ccccc2)cc1` [Compound 8, (2S)-3-Hydroxy-2-{4-[(2R)-2-methylbutoxy]phenyl}-N-[(1 R)-1-phenylethyl]propenamide], the Emax was 96 ± 13% and the EC50 is 3090 nM.

As for `CCCC(C)COc1ccc([C@@H](CO)C(=O)N[C@H](C)c2ccccc2C)cc1` (stereo partly drawn) [Compound 9, (2S)-3-Hydroxy-2-{4-[(2-methylpentyl)oxy]phenyl}-N-[(1 R)-1-(2-methylphenyl)ethyl]propenamide], the Emax was found to be 48 ± 8%.

`CCCC(C)COc1ccc([C@@H](CO)C(=O)N[C@H](C)c2cccc(C)c2)cc1` (stereo partly drawn) [Compound 10, (2S)-3-Hydroxy-2-{4-[(2-methylpentyl)oxy]phenyl}-N-[(1 R)-1-(3-methylphenyl)ethyl]propenamide] returned a maximal response (Emax) of 100 ± 3%.

On to `CCCC(C)COc1ccc([C@@H](CO)C(=O)N[C@H](C)c2ccc(C)cc2)cc1` (stereo partly drawn) [Compound 11, (2S)-3-Hydroxy-2-{4-[(2-methylpentyl)oxy]phenyl}-N-[(1 R)-1-(4-methylphenyl)ethyl]propenamide], for which the Emax worked out at 102 ± 7%.

`CCCC(C)COc1ccc([C@@H](CO)C(=O)N[C@H](C)c2ccc(F)cc2)cc1` (stereo partly drawn) [Compound 12, (2S)—N-[(1 R)-1-(4-Fluorophenyl)ethyl]-3-hydroxy-2-{4-[(2-methylpentyl)oxy]phenyl}propenamide] displayed an Emax of 92 ± 3%.

For the compound `CCCC(C)COc1ccc([C@@H](CO)C(=O)N[C@H](C)c2ccc(OC)cc2)cc1` (stereo partly drawn) [Compound 13, (2S)-3-Hydroxy-N-[(1 R)-1-(4-methoxyphenyl)ethyl]-2-{4-[(2-methylpentyl)oxy]phenyl}propenamide], the Emax came to 94 ± 3%.

Turning to `CCCC(C)COc1ccc([C@@H](CO)C(=O)Nc2ccccc2)cc1` (stereo partly drawn) [Compound 14, (2S)-3-Hydroxy-2-{4-[(2-methylpentyl)oxy]phenyl}-N-phenylpropanamide], the “cAMP pEC50” value is listed as “Inactive”.

`CCCC(C)COc1ccc([C@@H](CO)C(=O)NCc2ccccc2)cc1` (stereo partly drawn) [Compound 15, (2S)—N-Benzyl-3-hydroxy-2-{4-[(2-methylpentyl)oxy]phenyl}propenamide] gave an Emax of 99 ± 9%.

`CCCC(C)COc1ccc([C@@H](CO)C(=O)NCCc2ccccc2)cc1` (stereo partly drawn) [Compound 16, (2S)-3-Hydroxy-2-{4-[(2-methylpentyl)oxy]phenyl}-N-(2-phenylethyl)propenamide] returned an Emax of 97 ± 5%.

With `CCCC(C)COc1ccc([C@@H](CO)C(=O)N[C@H](CC)c2ccccc2)cc1` (stereo partly drawn) [Compound 17, (2S)-3-Hydroxy-2-{4-[(2-methylpentyl)oxy]phenyl}-N-[(1 R)-1-phenylpropyl]propenamide], the Emax was 102 ± 8%.

In the case of `CCCC(C)COc1ccc([C@@H](CO)C(=O)N[C@H](COC)c2ccccc2)cc1` (stereo partly drawn) [Compound 18, (2S)-3-Hydroxy-N-[(1 S)-2-methoxy-1-phenylethyl]-2-{4-[(2-methylpentyl)oxy]phenyl}propenamide], the Emax was 91 ± 4%.

For `CCCC(C)COc1ccc([C@@H](CO)C(=O)NC(C)(C)c2ccccc2)cc1` (stereo partly drawn) [Compound 19, (2S)-3-Hydroxy-2-{4-[(2-methylpentyl)oxy]phenyl}-N-(2-phenylpropan-2-yl)propenamide], the Emax turned out to be 83 ± 2%, the “cAMP pEC50” value was determined as 5.90 ± 0.05 and the EC50 was 1260 nM.

`CCCC(C)COc1ccc([C@@H](CO)C(=O)NC2(c3ccccc3)CC2)cc1` (stereo partly drawn) [Compound 20, (2S)-3-Hydroxy-2-{4-[(2-methylpentyl)oxy]phenyl}-N-(1-phenylcyclopropyl)propenamide] gave an Emax of 81 ± 8%.

In the case of `CCCC(C)COc1ccc([C@@H](CO)C(=O)N[C@H](C)c2ccccn2)cc1` (stereo partly drawn) [Compound 21, (2S)-3-Hydroxy-2-{4-[(2-methylpentyl)oxy]phenyl}-N-[(1 R)-1-(pyridin-2-yl)ethyl]propenamide], the Emax was found to be 93 ± 4%.

`CCCC(C)COc1ccc([C@@H](CO)C(=O)N[C@H](C)c2ccco2)cc1` (stereo partly drawn) [Compound 22, (2S)—N-[(1 R)-1-(Furan-2-yl)ethyl]-3-hydroxy-2-{4-[(2-methylpentyl)oxy]phenyl}propenamide] gave an Emax of 108 ± 6%.

`CCCC(C)COc1ccc([C@@H](CO)C(=O)N[C@H](C)c2cccs2)cc1` (stereo partly drawn) [Compound 23, (2S)-3-Hydroxy-2-{4-[(2-methylpentyl)oxy]phenyl}-N-[(1 R)-1-(thiophen-2-yl)ethyl]propenamide] gave an Emax of 93 ± 5%.

With `CCCC(C)COc1ccc([C@@H](CO)C(=O)N[C@@H]2C[C@H]2c2ccccc2)cc1` (stereo partly shown) [Compound 24], the Emax turned out to be 83 ± 5%.

On to `CCCc1ccc(-c2ccc([C@@H](CO)C(=O)N[C@H](C)c3ccccc3)cc2)cc1` [Compound 25, (2S)-3-Hydroxy-N-[(1 R)-1-phenylethyl]-2-{4′-propyl-[1,1′-biphenyl]-4-yl}propenamide], for which the Emax came to 96 ± 3% and the EC50 is 138 nM.

Regarding `CCCc1ccc(-c2ccc(CC(=O)N[C@H](C)c3ccccc3)cc2)cc1` [Compound 26, N-[(1 R)-1-Phenylethyl]-2-{4′-propyl-[1,1′-biphenyl]-4-yl}acetamide], the Emax is 95 ± 5% and the EC50 was 257 nM.

Turning to `CCCc1ccc(-c2ccc([C@@H](CC)C(=O)N[C@H](C)c3ccccc3)cc2)cc1` [Compound 27, (2R)—N-[(1 R)-1-Phenylethyl]-2-{4′-propyl-[1,1′-biphenyl]-4-yl}butanamide], the Emax was found to be 93 ± 9% and the EC50 is 501 nM.

With `CCCc1ccc(-c2ccc([C@@H](Cn3cncn3)C(=O)N[C@H](C)c3ccccc3)cc2)cc1` [Compound 30], the Emax is 96 ± 3% and the 50% effective concentration (EC50) is 1100 nM.

Take `CCCc1ccc(-c2ccc([C@@H](Cn3ccnn3)C(=O)N[C@H](C)c3ccccc3)cc2)cc1` [Compound 31, (2S)—N-[(1 R)-1-Phenylethyl]-2-{4′-propyl-[1,1′-biphenyl]-4-yl}-3-(1H-1,2,3-triazol-1-yl)propenamide]: the Emax came out at 96% and the concentration giving a half-maximal response (EC50) is 631 nM.

Turning to `C[C@@H](NC(=O)[C@H](CO)c1ccc(-c2ccc(C3CCC3)cc2)cc1)c1ccccc1` [Compound 32, (2S)-2-{4′-Cyclobutyl-[1,1′-biphenyl]-4-yl}-3-hydroxy-N-[(1 R)-1-phenylethyl]propenamide], the Emax was 74 ± 7% and the EC50 is 355 nM.
